Assay results: US9856511B2, “Protease deubiquitinating inhibitor screening” (priority 2011, dated 2018)

Experiments:
UCHL1 = biological target: T1, UCHL1 (Homo sapiens, UniProt P09936); test: HA-UbVS competitive labelling, non-proteasomal DUB; assay type: binding
T1 sequence (P09936 1-223): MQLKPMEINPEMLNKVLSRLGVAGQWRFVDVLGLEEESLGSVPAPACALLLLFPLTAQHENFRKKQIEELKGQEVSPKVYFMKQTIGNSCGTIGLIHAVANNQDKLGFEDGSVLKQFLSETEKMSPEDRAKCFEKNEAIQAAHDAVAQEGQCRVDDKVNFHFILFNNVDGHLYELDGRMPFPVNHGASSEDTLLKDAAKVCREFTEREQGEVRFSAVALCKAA
Description: (§1) The deubiquitinating activity of the proteasome is attributed to the action of three DUBs, UCHL5, USP14 and POH1, all localized within the 19S RP 26-28. Both UCHL5 and USP14 are sensitive to N-ethylmaleimide (NEM), a general inhibitor of cysteine proteases, whereas POH1 is insensitive to inhibition by NEM but sensitive to metal chelators such as N,N,N,N-tetrakis-(2-pyridylmethyl)ethylenediamine (TPEN) (29). […] To identify specifically which DUBs were inhibited by b-AP15 treatment, competitive labelling experiments were performed using hemagglutinin tagged ubiquitin vinylsulphonone (HA-UbVS), an active site directed probe that irreversibly reacts with DUBs of the cysteine class (26).
(§2) For labelling of DUBs in cell lysates sub confluent cells were harvested by trypsinization, washed three times with PBS, and centrifuged at 1500 RPM for 5 min. Cell pellets were lysed with buffer (50 mM HEPES pH 7.4, 250 mM sucrose, 10 mM MgCl2, 2 mM ATP, 1 mM DTT) on ice for 15 min. Debris was removed by centrifugation and 25 μg of protein was labelled with 1 μM HA-UbVS for 30 min at 37° C. Samples were resolved by SDS-PAGE and analyzed by immunoblotting with indicated antibodies.

USP5 = biological target: T2, USP5 (Homo sapiens, UniProt P45974); test: HA-UbVS competitive labelling, non-proteasomal DUB; assay type: binding
T2 sequence (P45974 1-858): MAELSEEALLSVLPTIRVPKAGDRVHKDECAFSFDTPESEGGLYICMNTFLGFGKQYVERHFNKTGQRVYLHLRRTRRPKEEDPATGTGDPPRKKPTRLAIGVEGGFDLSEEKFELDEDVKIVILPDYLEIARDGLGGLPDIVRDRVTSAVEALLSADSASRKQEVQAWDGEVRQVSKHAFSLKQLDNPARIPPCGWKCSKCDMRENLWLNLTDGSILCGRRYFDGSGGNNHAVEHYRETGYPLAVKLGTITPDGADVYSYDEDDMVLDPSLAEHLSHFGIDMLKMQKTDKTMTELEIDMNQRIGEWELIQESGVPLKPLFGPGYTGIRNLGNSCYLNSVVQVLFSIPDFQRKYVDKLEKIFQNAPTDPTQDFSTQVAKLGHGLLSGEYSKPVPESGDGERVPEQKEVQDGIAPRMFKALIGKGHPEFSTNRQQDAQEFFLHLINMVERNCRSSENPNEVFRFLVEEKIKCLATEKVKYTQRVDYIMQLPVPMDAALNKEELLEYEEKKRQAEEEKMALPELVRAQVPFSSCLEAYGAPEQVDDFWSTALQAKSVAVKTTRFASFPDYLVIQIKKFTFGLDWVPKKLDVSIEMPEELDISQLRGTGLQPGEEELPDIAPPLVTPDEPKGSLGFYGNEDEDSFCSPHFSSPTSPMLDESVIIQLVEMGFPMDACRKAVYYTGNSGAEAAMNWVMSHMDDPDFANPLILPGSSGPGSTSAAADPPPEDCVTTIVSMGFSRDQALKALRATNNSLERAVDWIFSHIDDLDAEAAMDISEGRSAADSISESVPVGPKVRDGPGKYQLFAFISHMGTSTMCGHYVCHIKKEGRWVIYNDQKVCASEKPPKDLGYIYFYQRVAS
Description: as §1, §2

## C=CC(=O)N1C/C(=C\c2ccc([N+](=O)[O-])cc2)C(=O)/C(=C/c2ccc([N+](=O)[O-])cc2)C1 [b-AP15]
UCHL1
  activity of non-proteasomal DUB UCHL1: without affecting the activity
USP5
  activity of non-proteasomal DUB USP5: without affecting the activity
